According to patent publication US20250064762A1, “A SUBSTITUTED AROMATIC DICARBONIC ACID AMIDE AS AN INHIBITOR OF THE FERROPTOSIS SUPPRESSOR PROTEIN-1 (FSP1)” (JULIUS-MAXIMILIANS-UNIVERSITÄT WÜRZBURG, priority 2021, published 2025):

Columns and labels:
Type in all cases: cell-based, human
[1] = system: HT1080 GPX4-knockout (KO) cells; experiment: Viability of GPX4-knockout cells after α-tocopherol wash-out; conditions: 100 μM CPBA; 48-120 h after α-tocopherol wash-out
Protocol: (§1) The following HT1080 fibrosarcoma cell lines were generated using CRISPR/Cas9 technology, as previously described (Doll et al., 2019): HT1080 GPX4-knockout (KO) cells (maintained in the presence of 100 μM α-tocopherol); HT1080 GPX4 knockout cells overexpressing FSP1 (GPX4-KO/FSP1-OE); GPX4-KO cells overexpressing FSP1 and re-expressing GPX4 (GPX4-KO/FSP1-OE/GPX4-OE); HT1080 FSP1-WT or FSP1-KO cells; and HT1080 FSP1-KO cells reconstituted with either FSP1-WT or FSP1-G2A. LOX-IMVI (BRAF V600E heterozygous human melanoma cells) expressing either the Venus mock vector or FSP1-Venus (Doll et al., 2019) were grown in RPMI-1640 supplemented with 10% FCS, 2 mM L-glutamine and Pen/Strep.
In order to study the effect of CPBA-induced sensitization to ferroptosis in the absence of the ferroptosis suppressor GPX4, we generated HT1080 GPX4-knockout (KO) cells using CRISPR/Cas9 technology as described above. Lack of GPX4 expression in GPX4-KO cell lines was confirmed by Western Blot as described above (see FIG. 11). […] Cell viability was assessed at 48 h, 72 h, 96 h and 120 h using AquaBluer.

[2] = system: GPX4-KO/FSP1-OE HT1080 cells; experiment: Viability of FSP1-dependent GPX4-KO cells with serial dilutions of CPBA, no FINs; conditions: serial dilutions of CPBA, no FINs
Protocol: as §1
Next, we tested the effect of CPBA on ferroptotic cell death in GPX4-deficient HT1080 cells whose survival depends on the expression of FSP1 in order to suppress ferroptosis in the absence of GPX4. GPX4 knockout cells overexpressing FSP1 (GPX4-KO/FSP1-OE), or GPX4-KO cells overexpressing FSP1 and re-expressing GPX4 (GPX4-KO/FSP1-OE/GPX4-OE) were incubated with serial dilutions of CPBA. Note that no ferroptosis inducers (FINs) were added. Protein expression was confirmed by Western Blot as described above (see FIG. 11).

[3] = system: HT1080 cells; experiment: Lipid droplet staining with BODIPY 493/503; conditions: CPBA 100 μM; T863 10 μM and PF-06424439 5 μM; 16 h
Protocol: HT1080 cells were seeded on glass coverslips (15,000 cells per well of 12-well plate) in complete DMEM, and incubated for 16 h with 100 μM CPBA or with 0.1% of the DMSO solvent control, in the absence or presence of inhibitors of DGAT1 and DGAT2 (10 μM T863/iDGAT1; 5 μM PF-06424439/iDGAT2). Cells were fixed with 4% para-formaldehyde, lipid droplets were stained with the neutral lipid droplet stain BODIPY 493/503 (2 μM, 30 min), and nuclei were counterstained with 4′,6-diamidino-2-phenylindole (DAPI). Cells were mounted with Immu-Mount (Fisher Scientific), and imaged by fluorescence microscopy on a THUNDER imager (THUNDER Imager Live Cell & 3D Cell Culture & 3D Assay system, Leica DMI8; Leica Microsystems), using a 63× objective.
We next investigated the impact of CPBA on triglyceride levels and ferroptosis sensitivity by first imaging lipid droplets with the neutral lipid stain BODIPY 493/503.
The diglyceride acyltransferase isoforms 1 and 2 (DGAT1, DGAT2) are required to catalyze the formation of triglycerides from diacylglycerol and acyl-CoA.

With `O=C(Nc1ccccc1C(=O)O)c1ccc(Oc2ccc(C(=O)Nc3ccccc3C(=O)O)cc2)cc1` [CPBA, 2-[[4-[4-[(2-carboxyphenyl)carbamoyl]phenoxy]benzoyl]amino]-benzoic acid] the “ferroptosis in the absence of GPX4” value [1] was “accelerates ferroptosis in the absence of GPX4”, the “cell death of GPX4-KO, FSP1-dependent cells” value [2] was “die in a CPBA concentration-dependent manner” and the lipid droplets [3] was “triggered the accumulation of lipid droplets in HT1080 cells”.
